In US10245245B2, “Compositions and methods for neuroprotection and treatment of neurodegeneration” (Vireo Systems, Inc., priority 2015, dated 2019):

Legend:
[1] = cited from earlier work
[2] = test system: confirmed carriers of the HD gene mutation; test: Creatine HCl in patients having HD gene mutation (clinical neurological assessment, MRI); type: in vivo, human; settings: 10 to 12 grams/day
Method: Patients were confirmed carriers of the HD gene mutation at early stage 1 progression. Each patient was instructed to take 10 to 12 grams/day of creatine HCl. Neurological progression of disease was monitored quarterly as were full blood chemistry profiles. Assessment of neurological progression using magnetic resonance imaging (MRI) was also performed at a minimum of once a year.

[3] = Relative bioavailability; settings: in vivo

Row | SMILES | patients unable to tolerate the maximum dose ([1]; 30 g daily) | those on placebo unable to tolerate the maximal dose when they switched to it ([1]; maximal dose 30 g daily) | progression of disease (clinical neurological assessments or MRI) ([2]; 3.5 years, early stage 1 carriers) | onset of the disease / symptoms ([2]; over the 3.5 year time period) | relative bioavailability, greater than creatine monohydrate [3]
1 | CN(CC(=O)O)C(=N)N.O [creatine monohydrate] | about one-third | 13% |  |  | 
2 | CN(CC(=O)O)C(=N)N.Cl [creatine HCl, creatine hydrochloride] |  |  | no progression of disease | no symptoms | at least 50%
